According to paper PMC6862662, “In Vitro Evaluation and Docking Studies of 5-oxo-5H-furo[3,2-g]chromene-6-carbaldehyde Derivatives as Potential Anti-Alzheimer’s Agents” (International Journal of Molecular Sciences, 2019):
Counter-ions that a name gives are not always drawn.

Key:
AChE [1] = molecular target: T1, AChE (Homo sapiens, UniProt P22303); test: biochemical; settings: for IC50: Ellman's method, triplicate, read-out: IC50 (µM) AChE; for SI BChE/AChE: Selectivity index IC50 (BChE)/IC50 (AChE)
T1 construct: purchased BL, purchased through BIOCOM Africa (Pty) Ltd. 768104

BChE [2] = molecular target: T2, BChE (Homo sapiens, UniProt P06276); test: biochemical; settings: for IC50: Ellman's method, triplicate; for SI AChE/BChE: Selectivity index IC50 (AChE)/IC50 (BChE)
T2 construct: purchased cloud-clone corp., purchased through BIOCOM Africa (Pty) Ltd. RPC348Hu0 2_100
Procedure: The mixtures were incubated for 15 min at RT. The reaction was initiated by adding of 10 µL of mixture solution of 5 mM 5,50-dithio-bis-nitrobenzoic acid (DTNB) in 50 mM tris buffer (pH 7.7) and 10 µL acetylthiocholine (ASCh; 5 mM) in 50 mM tris buffer, pH 7.7 into the wells containing the mixtures. The hydrolysis of ASCh was determined by monitoring the formation of the yellow 5-thio-2-nitrobenzoate anion resulting from reaction of DTNB with thiocholines (SCh).
The IC50 values were determined graphically from inhibition curves (inhibitor concentration and absorbance) using the graph pad prism.

[3] = DPPH radical scavenging activity assay; settings: triplicate, preliminary
Procedure: DPPH radical scavenging activity of compounds 2b, 2f, 3b, 3d and 3f was evaluated following the literature method. Ascorbic acid (Sigma Aldrich, Saint Louis, Missouri, USA) was used as a positive control. The test compounds and controls at various concentrations ranging from (0 µM to 40 µM) in DMSO were mixed with a solution of DPPH (0.20 mM) in methanol. The mixtures were incubated in the dark for 45 min and the absorbances were recorded at 512 nm using Varioskan flash microplate spectrophotometer reader. All tests and analyses were run in triplicate and averaged. The inhibition was calculated in terms of percentage using the formula below:(5) DPPH radical scavenged (%)=AbC−AbS/AbC×100, where AbC is absorbance of control and AbS the absorbance of the test sample.

[4] = system: breast cancer cell line MCF-7; test: MTT cytotoxicity assay, MCF-7; assay type: cell-based; settings: Homo sapiens, MCF7, 24 h, read-out: IC50 against MCF-7 cancer cell line
Procedure: Briefly, the cells were seeded in 96-well plate at a density of 20 × 10^3 cells per well and then incubated at 37 °C in 5% CO2 to allow cell attachment. […] An equal volume of medium was used as the control treatment. After treatment for 24 h, 10 μL MTT (5 mg/mL) was added to each well and the plate was further incubated for 4 h later. The supernatant was removed and 100 μL of DMSO was added to each well to dissolve the resulting formazan crystals. The absorbance was read at 570 nm using the Varioskan flash microplate spectrophotometer reader. The percentages of cell viability were used to determine the IC50 values.

human recombinant BACE-1 = molecular target: T3, human recombinant BACE-1 (Homo sapiens, UniProt P56817); test: β-secretase FRET inhibitory assay; assay type: biochemical; settings: triplicate
T3 construct: purchased Pan Vera; host or cells: baculovirus-expressed

AChE [5] = molecular target: T1, AChE; test: Kinetic studies against AChE (Lineweaver–Burk and Dixon plots); assay type: biochemical; settings: for Ki: Dixon plots; for mode of inhibition against AChE: Lineweaver–Burk and Dixon plots
Procedure: (§1) Compounds 2f, 2b, 2f, 3b, 3d and 3f were selected for the kinetic studies with substrate concentrations 0.1, 0.5, 2. 5 and 5 µM for ChEs following procedures described in our previous investigation. The Lineweaver–Burk plots (plots of the inverse of velocity (1/v) against the inverse of the substrate concentration (1/[S])) were used to ascertain the mode of inhibition of these compounds.

BChE [6] = molecular target: T2, BChE; test: Kinetic studies against BChE (Lineweaver–Burk and Dixon plots); assay type: biochemical; settings: for Ki: Dixon plots; for mode of inhibition against BChE: Lineweaver–Burk and Dixon plots
Procedure: as §1

T3 sequence (P56817 46-501): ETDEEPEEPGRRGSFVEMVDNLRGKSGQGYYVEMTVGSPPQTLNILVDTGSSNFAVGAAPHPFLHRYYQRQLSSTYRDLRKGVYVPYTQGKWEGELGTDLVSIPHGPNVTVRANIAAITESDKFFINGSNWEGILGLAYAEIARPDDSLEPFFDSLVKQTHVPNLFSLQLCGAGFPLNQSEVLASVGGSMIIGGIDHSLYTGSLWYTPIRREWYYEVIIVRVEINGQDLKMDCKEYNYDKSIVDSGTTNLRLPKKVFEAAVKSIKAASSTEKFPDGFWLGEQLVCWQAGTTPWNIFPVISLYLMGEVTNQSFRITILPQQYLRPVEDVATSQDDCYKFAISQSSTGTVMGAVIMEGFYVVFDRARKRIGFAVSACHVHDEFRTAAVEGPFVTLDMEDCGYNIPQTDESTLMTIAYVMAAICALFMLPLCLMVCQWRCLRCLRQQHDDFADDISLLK
T1 sequence (P22303 32-614): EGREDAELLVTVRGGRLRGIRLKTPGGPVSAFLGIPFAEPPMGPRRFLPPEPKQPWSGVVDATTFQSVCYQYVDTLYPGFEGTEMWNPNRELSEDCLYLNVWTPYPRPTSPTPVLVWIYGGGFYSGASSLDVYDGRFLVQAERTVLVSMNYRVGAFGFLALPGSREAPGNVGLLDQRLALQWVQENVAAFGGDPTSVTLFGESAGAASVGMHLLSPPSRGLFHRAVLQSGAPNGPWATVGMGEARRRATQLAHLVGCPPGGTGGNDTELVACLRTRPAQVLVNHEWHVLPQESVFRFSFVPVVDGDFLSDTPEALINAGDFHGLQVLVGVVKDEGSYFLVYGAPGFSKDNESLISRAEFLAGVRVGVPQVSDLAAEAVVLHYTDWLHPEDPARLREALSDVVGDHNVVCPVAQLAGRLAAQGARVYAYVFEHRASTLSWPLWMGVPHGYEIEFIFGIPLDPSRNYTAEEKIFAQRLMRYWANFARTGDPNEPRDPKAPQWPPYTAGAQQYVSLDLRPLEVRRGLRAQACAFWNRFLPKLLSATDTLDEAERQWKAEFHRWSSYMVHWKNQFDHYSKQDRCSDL
T2 sequence (P06276 29-602): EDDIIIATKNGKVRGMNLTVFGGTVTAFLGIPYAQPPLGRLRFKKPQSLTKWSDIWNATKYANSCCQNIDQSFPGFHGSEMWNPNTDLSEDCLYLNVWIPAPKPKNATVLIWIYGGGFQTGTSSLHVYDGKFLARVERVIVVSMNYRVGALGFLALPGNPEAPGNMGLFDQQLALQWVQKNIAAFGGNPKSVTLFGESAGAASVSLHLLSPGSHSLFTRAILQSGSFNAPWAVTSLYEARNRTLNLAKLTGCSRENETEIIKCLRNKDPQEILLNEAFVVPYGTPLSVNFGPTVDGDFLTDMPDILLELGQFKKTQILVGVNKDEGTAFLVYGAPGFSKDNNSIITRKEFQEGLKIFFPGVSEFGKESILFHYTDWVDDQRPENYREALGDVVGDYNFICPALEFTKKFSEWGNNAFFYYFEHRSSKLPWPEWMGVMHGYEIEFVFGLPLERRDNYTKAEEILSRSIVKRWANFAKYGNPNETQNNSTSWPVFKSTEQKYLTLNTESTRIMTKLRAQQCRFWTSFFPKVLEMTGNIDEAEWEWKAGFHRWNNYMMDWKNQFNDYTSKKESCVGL

Row | SMILES | IC50 (AChE [1]) [µM] | SI BChE/AChE (AChE [1]) | IC50 (BChE [2]) [µM] | SI AChE/BChE (BChE [2]) | IC50 [3] [µM] | IC50 [4] [µM] | IC50 (human recombinant BACE-1) [µM] | Ki (AChE [5]) [µM] | mode of inhibition against AChE (AChE [5]) | Ki (BChE [6]) [µM] | mode of inhibition against BChE (BChE [6]) | Vmax against BChE (BChE [6]; Lineweaver–Burk plots, substrate 0–5 µM)
1 | Cc1ccc(-c2cc3cc4c(=O)c(C=O)coc4cc3o2)cc1 [Compound 2h, 5-Oxo-2-(p-tolyl)-5H-furo[3,2-g]chromene-6-carbaldehyde] | 12.9 ± 0.01 | 2.18 | 28.1 ± 0.03 | 0.46 | – | – | – | – | – | – | – | –
2 | O=c1c(C=NNc2ccc(C(F)(F)F)cc2)coc2cc3oc(C4=CCCCC4)cc3cc12 [Compound 3i, 2-(Cyclohex-1-en-1-yl)-6-((2-(4-(trifluoromethyl)phenyl)hydrazono)methyl)-5H-furo[3,2-g]chromen-5-one] | 29.8 ± 0.01 | 1.04 | 30.9 ± 0.02 | 0.96 | – | – | – | – | – | – | – | –
3 | O=C1O[C@H]([C@@H](O)CO)C(O)=C1O [Ascorbic acid, reference compound] | – | – | – | – | 4.8 ± 0.01 | – | – | – | – | – | – | –
4 | COc1cccc2c1C(=O)c1c(O)c3c(c(O)c1C2=O)C[C@@](O)(C(=O)CO)C[C@@H]3O[C@H]1C[C@H](N)[C@H](O)[C@H](C)O1 [doxorubicin, doxorubicin hydrochloride, reference compound] | – | – | – | – | – | 1.59 ± 0.01 | – | – | – | – | – | –
5 | O=Cc1coc2cc3oc(-c4ccc(F)cc4)cc3cc2c1=O [Compound 2c, 2-(4-Fluorophenyl)-5-oxo-5H-furo[3,2-g]chromene-6-carbaldehyde] | 15.3 ± 0.01 | 1.03 | 15.7 ± 0.02 | 0.97 | – | – | – | – | – | – | – | –
6 | Cc1ccc(-c2cc3cc4c(=O)c(C=NNc5ccc(C(F)(F)F)cc5)coc4cc3o2)cc1 [Compound 3h, 2-(4-p-Tolyl)-6-[(4-trifluoromethylphenyl)hydrazonomethyl]furo[3,2-g]chromen-5-one] | 10.5 ± 0.03 | 3.37 | 35.4 ± 0.015 | 0.30 | – | – | – | – | – | – | – | –
7 | O=c1c(C=NNc2ccc(C(F)(F)F)cc2)coc2cc3oc(-c4ccccc4)cc3cc12 [Compound 3a, 2-Phenyl-6-[(4-trifluoromethylphenyl)hydrazonomethyl]furo[3,2-g]chromen-5-one] | 18.4 ± 0.01 | 1.43 | 26.3 ± 0.02 | 0.70 | – | – | – | – | – | – | – | –
8 | O=c1c(C=NNc2ccc(C(F)(F)F)cc2)coc2cc3oc(-c4ccc(Cl)cc4)cc3cc12 [Compound 3e, 2-(4-Chlorophenyl)-6-[(4-trifluoromethylphenyl)hydrazonomethyl]furo[3,2-g]chromen-5-one] | 12.9 ± 0.02 | 1.91 | 24.6 ± 0.02 | 0.52 | – | – | – | – | – | – | – | –
9 | O=c1c(C=NNc2ccc(C(F)(F)F)cc2)coc2cc3oc(-c4cccc(F)c4)cc3cc12 [Compound 3b, 2-(3-Fluorophenyl)-6-[(4-trifluoromethylphenyl)hydrazonomethyl]furo[3,2-g]chromen-5-one] | 7.6 ± 0.03 | 1.47 | 11.2 ± 0.02 | 0.68 | 21.8 ± 0.02 | – | 17.3 ± 0.03 | 0.58 ± 0.04 | non-competitive | 6.1 ± 0.02 | non-competitive | –
10 | O=Cc1coc2cc3oc(-c4ccc(Cl)cc4)cc3cc2c1=O [Compound 2e, 2-(4-Chlorophenyl)-5-oxo-5H-furo[3,2-g]chromene-6-carbaldehyde] | 21.8 ± 0.03 | – | 14 ± 0.04 | 1.61 | – | – | – | – | – | – | – | –
11 | COc1cc(OC)cc(-c2cc3cc4c(=O)c(C=O)coc4cc3o2)c1 [Compound 2g, 2-(3,5-Dimethoxyphenyl)-5-oxo-5H-furo[3,2-g]chromene-6-carbaldehyde] | 10.8 ± 0.02 | 3.81 | 41.2 ± 0.03 | 0.26 | – | – | – | – | – | – | – | –
12 | O=Cc1coc2cc3oc(-c4cccc(Cl)c4)cc3cc2c1=O [Compound 2d, 2-(3-Chlorophenyl)-5-oxo-5H-furo[3,2-g]chromene-6-carbaldehyde] | 33.4 ± 0.03 | 0.65 | 21.6 ± 0.01 | 1.54 | – | – | – | – | – | – | – | –
13 | O=Cc1coc2cc3oc(C4=CCCCC4)cc3cc2c1=O [Compound 2i, 2-(Cyclohex-1-en-1-yl)-5-oxo-5H-furo[3,2-g]chromene-6-carbaldehyde] | 22.6 ± 0.03 | 1.54 | 34.8 ± 0.02 | 0.65 | – | – | – | – | – | – | – | –
14 | COc1ccc(-c2cc3cc4c(=O)c(C=NNc5ccc(C(F)(F)F)cc5)coc4cc3o2)cc1 [Compound 3f, 2-(4-Methoxyphenyl)-6-[(4-trifluoromethylphenyl)hydrazonomethyl]furo[3,2-g]chromen-5-one] | 5.4 ± 0.02 | 1.78 | 9.6 ± 0.05 | 0.56 | 23.9 ± 0.04 | – | 25.3 ± 0.04 | 8.16 ± 0.02 | non-competitive | 5.4 ± 0.04 | competitive | 0.013 ± 0.02
15 | O=c1c(C=NNc2ccc(C(F)(F)F)cc2)coc2cc3oc(-c4ccc(F)cc4)cc3cc12 [Compound 3c, 2-(4-Fluorophenyl)-6-[(4-trifluoromethylphenyl)hydrazonomethyl]furo[3,2-g]chromen-5-one] | 21.2 ± 0.01 | 0.67 | 14.1 ± 0.01 | 1.49 | – | – | – | – | – | – | – | –
16 | O=Cc1coc2cc3oc(-c4ccccc4)cc3cc2c1=O [Compound 2a, 5-Oxo-2-phenyl-5H-furo[3,2-g]chromene-6-carbaldehyde] | 28.6 ± 0.01 | 0.43 | 12.3 ± 0.02 | 2.33 | – | – | – | – | – | – | – | –
17 | O=c1c(C=NNc2ccc(C(F)(F)F)cc2)coc2cc3oc(-c4cccc(Cl)c4)cc3cc12 [Compound 3d, 2-(3-Chlorophenyl)-6-[(4-trifluoromethylphenyl)hydrazonomethyl]furo[3,2-g]chromen-5-one] | 18.3 ± 0.04 | 0.39 | 7.2 ± 0.03 | 2.56 | 20.9 ± 0.03 | – | 32.8 ± 0.02 | 2.5 ± 0.01 | non-competitive | 0.85 ± 0.01 | non-competitive | –
18 | O=Cc1coc2cc3oc(-c4cccc(F)c4)cc3cc2c1=O [Compound 2b, 2-(3-Fluorophenyl)-5-oxo-5H-furo[3,2-g]chromene-6-carbaldehyde] | 5.4 ± 0.05 | 1.19 | 6.4 ± 0.04 | 0.84 | 7.4 ± 0.01 | – | 21.6 ± 0.01 | 1.1 ± 0.02 | non-competitive | 1.7 ± 0.01 | non-competitive | –
19 | COc1cc(OC)cc(-c2cc3cc4c(=O)c(C=NNc5ccc(C(F)(F)F)cc5)coc4cc3o2)c1 [Compound 3g, 2-(3,5-Dimethoxyphenyl)-6-[(4-trifluoromethylphenyl)hydrazonomethyl]furo[3,2-g]chromen-5-one] | 34.9 ± 0.01 | 0.89 | 31.2 ± 0.04 | 1.12 | – | – | – | – | – | – | – | –
